{"source": "paper PMC8850458", "about": "“The AUTOTAC chemical biology platform for targeted protein degradation via the autophagy-lysosome system” (Nature Communications, 2022)", "key": {"[1]": {"biological_target": "T1, p62 (Homo sapiens, UniProt Q13501)", "T1 construct": "expressed in transfected cells; host or cells: HEK293T, transient; whole lysate used", "assay": "In vitro p62 oligomerization assay", "type": "biochemical", "details": "HEK293T lysate", "method": "HEK293T cells were transiently transfected with a plasmid encoding p62-myc/his fusion proteins. Cells were resuspended in lysis buffer [50 mM HEPES (pH 7.4), 0.15 M KCl, 0.1% Nonidet P-40), 10% glycerol, containing a mixture of protease inhibitors and phosphatase inhibitor (Abcam)]. To lyse the cells, 10 cycles of freezing and thawing was done, followed by centrifugation at 13,000 × g for 20 min at 4 °C. Using a BCA assay, the protein concentration of the supernatant was measured. A total of 1 μg of protein was incubated with 1 mM of p62-ZZ ligands in the presence of 100 μM bestatin (Enzo) at room temperature for 2 h. After incubation, each sample was mixed with non-reducing 4X LDS sample buffer, heated at 95 °C for 10 min, and resolved using 4–20% gradient SDS-PAGE (Bio-Rad). To monitor the conversion of p62 monomers into oligomers or aggregates, IB assay was performed using anti-myc antibody."}, "[2]": {"biological_target": "T2, mutant desminL385P (Homo sapiens, UniProt P17661, L385P)", "T2 construct": "expressed in transfected cells; host or cells: HeLa, transient", "T2 sequence (P17661 whole entry L385P)": "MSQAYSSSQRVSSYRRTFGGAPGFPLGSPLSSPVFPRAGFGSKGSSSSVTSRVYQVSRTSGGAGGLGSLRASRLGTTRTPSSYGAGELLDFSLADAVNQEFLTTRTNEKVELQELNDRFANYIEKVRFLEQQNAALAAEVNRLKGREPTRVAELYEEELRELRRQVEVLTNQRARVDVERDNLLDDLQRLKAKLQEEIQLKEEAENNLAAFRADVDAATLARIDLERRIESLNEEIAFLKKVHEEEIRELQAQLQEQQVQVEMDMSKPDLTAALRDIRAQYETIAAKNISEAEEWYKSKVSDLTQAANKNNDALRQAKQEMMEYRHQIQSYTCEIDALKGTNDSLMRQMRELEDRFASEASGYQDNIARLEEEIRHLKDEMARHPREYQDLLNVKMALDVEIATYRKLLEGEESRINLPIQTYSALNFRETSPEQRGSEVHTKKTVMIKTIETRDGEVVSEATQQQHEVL", "assay": "WB degradation of mutant desmin in HeLa cells", "type": "cell-based", "details": "exogenously expressed", "method": "(§1) Adherent cells were washed with phosphate-buffered saline (PBS) and cell pellets were lysed in SDS-based sample buffer (277.8 mM Tris-HCI, pH 6.8, 4.4% LDS, 44.4% (v/v) glycerol) containing beta-mercaptoethanol. Alternatively, cell pellets or protein supernatants were lysed in 5X Laemmli sample buffer. Whole-cell lysates were separated using SDS-PAGE, and transferred onto polyvinyllidene difluoride membranes at 100 V for 2 h at 4 °C. The membrane was incubated with a blocking solution consisting 4% skim milk in PBS solution for 30 min at room temperature and incubated with primary antibodies overnight, followed by incubation with host-specific HRP-conjugated secondary antibodies (1:10000 dilution). For signal detection, the membrane was developed with a mixture of ECL solution (Thermo Fisher Scientific) using X-ray films. Densitometry of developed bands was measured and analyzed with ImageJ (NIH, Bethesda).\n(§2) Supplementary Fig. 5. AUTOTACs selectively target pathological aggregation-prone proteins for autophagic degradation. (a) WB in HEK293T cells treated with PBA-1105 (1 μM) and MG132 (1 μM, 24 h) at the indicated time points. (b) ICC of HeLa cells treated with the indicated compounds (1 μM, 24 h). Scale bar, 10 μm. (c) WB in HEK293T cells treated with PBA-1105 (500 nM, 24 h) and MG132 (1 μM, 24 h) under siRNA-mediated knockdown of p62 or ATG7 (20 nM, 48 h). (d) ICC in HeLa cells transiently expressing WIPI2-GFP and treated with Anle138b-F105 (1 μM, 24 h). Scale bar, 10 μm. (e) ICC in HeLa cells treated with […]\n(§3) nM, 24 h). (g, h) WB in HeLa cells transiently expressing wild type or mutant (L385P) desmin-flag with LacZ-myc and treated with PBA-1105, PBA-1105b or Anle138b-F105 at the […]"}, "[3]": {"biological_target": "T3, wild-type desmin (Homo sapiens, UniProt P17661)", "T3 construct": "expressed in transfected cells; host or cells: HeLa, transient", "assay": "WB degradation of wild-type desmin in HeLa cells", "type": "cell-based", "details": "exogenously expressed", "method": "as §1, §2, §3"}, "[4]": {"biological_target": "tauP301L (Homo sapiens, UniProt P10636, P618L)", "sequence (P10636 1-441 isoform P10636-8 P301L)": "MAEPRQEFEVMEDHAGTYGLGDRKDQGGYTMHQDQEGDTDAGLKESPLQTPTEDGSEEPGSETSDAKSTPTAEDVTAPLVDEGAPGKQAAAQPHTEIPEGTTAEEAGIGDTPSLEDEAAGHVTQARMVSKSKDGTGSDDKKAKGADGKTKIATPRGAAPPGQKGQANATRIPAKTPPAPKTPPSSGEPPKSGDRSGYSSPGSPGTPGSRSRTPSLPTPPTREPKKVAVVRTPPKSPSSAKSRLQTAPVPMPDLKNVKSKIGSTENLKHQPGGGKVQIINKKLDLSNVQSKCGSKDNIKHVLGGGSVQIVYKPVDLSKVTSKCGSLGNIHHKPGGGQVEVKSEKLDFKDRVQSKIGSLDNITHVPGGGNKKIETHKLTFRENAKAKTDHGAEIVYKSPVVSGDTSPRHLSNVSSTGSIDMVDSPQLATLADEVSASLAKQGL", "assay": "WB degradation of tauP301L in SH-SY5Y-tauP301L cells", "type": "cell-based", "method_in_brief": "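Lysates in SDS/LDS or Laemmli sample buffer were separated by SDS-PAGE and blotted to PVDF. Target protein was detected with primary antibodies, HRP secondary and ECL on X-ray film, and degradation quantified by band densitometry.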"}, "[5]": {"tested_on": "mutant huntingtin (Htt-NES-Q97, Htt-NLS-Q97)", "assay": "WB autophagy flux/degradation of mutant huntingtin in HeLa cells", "type": "cell-based", "details": "HttQ97-NLS-GFP, 24 h post-treatment; read-out: DC50 against the nuclear subpopulation of Htt", "method": "as §1\nSupplementary Fig. 7. AUTOTACs selectively degrade pathological mutant huntingtin.\n(a) WB in HeLa-Htt-NLS-Q97-GFP cells treated with PBA-1106 or PBA-1105 (2.5 μM, 24 h) with or without HCQ (25 μM, 24 h). (b) Identical to a but with YOK-1106 instead of PBA-1105 in HeLa-Htt-NES-Q97-GFP cells. […] (k) Quantification of j (n=3 biologically independent experiments each counting 50 cells). […]"}}}
{"molecule": "Fc1ccc(COc2cccc(CNCCOCCOCCNc3cccc(-c4cc(-c5ccc6c(c5)OCO6)n[nH]4)c3)c2)cc1", "note": "[Anle138b-F105]", "values": [{"measurement": "p62 self-oligomerization", "setting": "[1]", "value": "facilitated p62 self-polymerization"}, {"measurement": "degradation of mutant desminL385P", "setting": "[2]", "value": "induced the degradation"}, {"measurement": "degradation of wild-type desmin", "setting": "[3]", "value": "not wild-type desmin"}, {"measurement": "persistence of mutant tau degradation post-washout", "setting": "[4]; 100 nM 24 h, then washout", "value": "at least 8 h"}, {"measurement": "DC50", "setting": "[4]; SH-SY5Y-tauP301L cells", "value": "~3", "unit": "nM"}, {"measurement": "DC50", "setting": "[5]", "value": "~3", "unit": "nM"}]}
